Assay results published in patent US20050124634A1, “1,4-dihydropyridine compounds, pharmaceutical compositions, and methods for the treatment of cardiovascular disease” (MYOGEN, INC., priority 2003, published 2005).

tested on: secretion of atrial natriuretic factor; assay: Anti-hypertrophic activity in NRVM, ANF ELISA (ANF secretion); type: cell-based, rat; settings: NRVM, hypertrophy induced by pharmacological stimuli; read-out: IC50 of the ANF ELISA (antihypertrophic activity)
Experimental: Anti-hypertrophic Activity of Racemic Compound 1 and Purified Enantiomers of Compound 1. Neonatal rat ventricular myocytes (NRVM) were isolated from 1 to 3 day-old Sprague-Dawley rats using enzymatic digestion and myocyte enrichment techniques. NRVM were cultured in serum-containing media for 18 hours. For the continuation of culture, serum-free media was used. Hypertrophy of NRVM was induced using pharmacological stimuli, including phenylephrine, endothelin-1, and […]. Hypertrophic responses were determined using methods including the following: measurement of total cellular protein; secretion of atrial natriuretic factor; determination of cell volume; determination of the expression of so-called fetal genes such as atrial natriuretic factor, beta-myosin heavy chain and alpha-skeletal actin. ANF secretion was the most sensitive assay for measuring hypertrophy, and the IC50 of the ANF ELISA was the measurement used to determine antihypertrophic activity.

`CC(=O)C1=C(C)NC(SCC(=O)c2cccc([N+](=O)[O-])c2)=C(C#N)C1c1ccccc1Cl` (stereo not drawn) [R-enantiomer] was tested, and the IC50 was 1100 nM.
For `CC(=O)C1=C(C)NC(SCC(=O)c2cccc([N+](=O)[O-])c2)=C(C#N)C1c1ccccc1Cl` (stereo not drawn) [S-enantiomer], the IC50 was 389 nM.

tested on: α-MyHC protein levels; assay: α-MyHC cytoblot assay in neonatal rat ventricular myocytes (NRVM); type: cell-based; settings: 10 mM Cpd; NRVM, 3 days
Experimental: FIG. 1 Concentration-dependent effect of Compound 1 on α-MyHC protein levels in the cytoblot assay. NRVM are cultured for 3 days in serum-free medium in the presence of differing amounts of Compound 1. At the end of the culture period, NRVM are fixed and analyzed for α-MyHC protein levels using the BA-G5 monoclonal antibody specific for α-MyHC. Results are collected as RLU using a Packard Fusion Plate reader, and normalized to the signal from samples cultured in the absence of compound (control, set to 100%).
Preparation and culture of neonatal rat ventricular myocytes (NRVM) was performed by removing hearts from 1-3 day old rat neonatal pups, along with the atria and lungs. The ventricles were cut into smaller pieces and digested 3 times with collagenase for 20-30 min at 37° C. The myocytes were then separated from other cell types using a Percoll gradient. The myocyte layer was collected, washed 2 times, and plated on tissue culture grade 10 cm Petri dishes for 1-2 hrs. The non-adherent cells (myocytes) were removed and plated in Costar clear view 96 well plates coated with 0.2% gelatin for at least 2 hrs. The gelatin solution was removed, and the myocytes were resuspended in DMEM high glucose media (Mediatech) containing 10% charcoal/dextran treated FBS (Hyclone) and 1% Penicillin-Streptomycin-Glutamine (PSG, Gibco). Ten thousand NRVM were plated per well in a 100 μl volume, and incubated overnight at 37° C. in 5% CO2 in air. The following day, the media was replaced with 100 μl of serum-free DMEM high glucose medium supplemented with PSG and 0.3% Nutridoma-SP (Roche).
Compounds were reconstituted in DMSO at 30 mM, and aliquots were stored at −20° C. A 1:1000 dilution was prepared in serum-free DMEM medium supplemented with PSG and 0.3% Nutridoma, and sonicated for 5 min at room temperature. After sonication, additional 3 fold dilutions were prepared in the same medium. Diluted compound was then added to the NRVM cultures in a volume of 100 μl. A 100 mM thyroid hormone stock solution (T3, Calbiochem) was prepared in 100 mM NaOH and added at a final concentration of 3 nM in DMEM medium supplemented with PSG and 0.3% Nutridoma-SP (Roche). NRVM were cultured for 3 days before detection of α-myosin heavy chain (α-MyHC) protein levels in the cytoblot assay.
For the α-MyHC cytoblot assay, NRVM cultures were analyzed for α-MyHC protein levels after 3 days of incubation. NRVM were washed 2 times with PBS, fixed with methanol for 30 min at 4° C., and washed an additional 2 times with PBS. Blocking solution consisting of PBS with 1% bovine serum albumin (BSA, Fisher Biotech) was added for 1 hr at room temperature before addition of a saturating amount of supernatant containing an α-MyHC specific antibody for 60 min at room temperature (BA-G5 hybridoma, ATTC). Two washes were performed with PBS/1% BSA, and a 1:500 dilution of HRP-goat anti-mouse IgG (Southern Biotech) diluted in PBS/1% BSA was added for 60 min at room temperature. Excess antibody was removed with 3 PBS washes, and a chemiluminescent substrate was added (Pierce SuperSignal West Pico Chemiluminscent Substrate) for 5 min before quantitation on a Packard Fusion Plate Reader.
As shown above in Table 1, Compound 1 increased α-MyHC protein levels as determined by an α-MyHC cytoblot assay. Compound 1 was added to NRVM at concentration ranging from 3 nM to 30 μM. After 3 days of incubation with NRVM, α-MyHC protein levels were detected in the cytoblot assay and quantitated (FIG. 1). […] An increase in α-MyHC protein levels was first detected beginning at 30 nM, with a maximal response observed at 3 μM. In six independent experiments, the concentration of Compound 1 that gave a half-maximal response was on average 60 nM.

Compared with `CC(=O)C1=C(C)NC(SCC(=O)c2cccc([N+](=O)[O-])c2)=C(C#N)C1c1cccc(C)c1` (racemic) [Compound 2], `CC(=O)C1=C(C)NC(SCC(=O)c2cccc([N+](=O)[O-])c2)=C(C#N)C1c1ccc(Cl)cc1` (racemic) [Compound 25] is higher in “% increase of a-MyHC over baseline at 10 mM Cpd” value (“% increase … at 10 mM Cpd” for short): 95% for the first, 139% for the second.

First: CC(=O)C1=C(C)NC(SCC(=O)c2cc(Cl)ccc2Cl)=C(C#N)C1c1ccccc1Cl (racemic) [Compound 3]
Second: CC(=O)C1=C(C)NC(SCC(=O)c2ccc(Cl)cc2Cl)=C(C#N)C1c1ccccc1Cl (racemic) [Compound 22]
The “% increase … at 10 mM Cpd” value of the first is higher: 314% for the first, 81% for the second.

Compared with `CC(=O)C1=C(C)NC(SCC(=O)c2ccccc2Cl)=C(C#N)C1c1ccccc1Cl` (racemic) [Compound 4], `CC(=O)C1=C(C)NC(SCC(=O)c2ccccc2)=C(C#N)C1c1ccccc1Cl` (racemic) [Compound 26] is higher in “% increase … at 10 mM Cpd” value: 135% for the first, 161% for the second.

Compared with `CC(=O)C1=C(C)NC(SCC(=O)c2ccc(Cl)cc2)=C(C#N)C1c1ccccc1Cl` (racemic) [Compound 5], `CC(=O)C1=C(C)NC(SCC(=O)c2ccc(Br)cc2)=C(C#N)C1c1ccccc1Cl` (racemic) [Compound 6] is higher in “% increase … at 10 mM Cpd” value: 52% for the first, 53% for the second.

Going from `CC(=O)C1=C(C)NC(SCC(=O)c2ccc(Cl)c(Cl)c2)=C(C#N)C1c1ccc(Cl)cc1` (racemic) [Compound 7] to `CC(=O)C1=C(C)NC(SCC(=O)c2ccc(Cl)c(Cl)c2)=C(C#N)C1c1ccc(F)cc1` (racemic) [Compound 10], the “% increase … at 10 mM Cpd” value rises from 43% to 88%.

Going from `CC(=O)C1=C(C)NC(SCC(=O)c2ccc(Cl)cc2Cl)=C(C#N)C1c1ccc(Cl)cc1` (racemic) [Compound 8] to `CC(=O)C1=C(C)NC(SCC(=O)c2ccc(Cl)cc2Cl)=C(C#N)C1c1ccc(F)cc1` (racemic) [Compound 11], the “% increase … at 10 mM Cpd” value rises from 29% to 51%.

First: CC(=O)C1=C(C)NC(SCC(=O)c2ccccc2Cl)=C(C#N)C1c1ccc(Cl)cc1 (racemic) [Compound 9]
Second: CC(=O)C1=C(C)NC(SCC(=O)c2ccc(Cl)cc2Cl)=C(C#N)C1c1ccccc1 (racemic) [Compound 15]
The “% increase … at 10 mM Cpd” value of the first is lower: 80% for the first, 81% for the second.

Going from `CC(=O)C1=C(C)NC(SCC(=O)c2ccc(Br)cc2)=C(C#N)C1c1cccc([N+](=O)[O-])c1` (racemic) [Compound 12] to `CC(=O)C1=C(C)NC(SCC(=O)c2ccc(Cl)c(Cl)c2)=C(C#N)C1c1cccc([N+](=O)[O-])c1` (racemic) [Compound 29], the “% increase … at 10 mM Cpd” value rises from 34% to 201%.

First: CC(=O)C1=C(C)NC(SCC(=O)c2ccc(Cl)c(Cl)c2)=C(C#N)C1c1ccccc1 (racemic) [Compound 13]
Second: CC(=O)C1=C(C)NC(SCC(=O)c2cc(Cl)ccc2Cl)=C(C#N)C1c1ccccc1 (racemic) [Compound 27]
The “% increase … at 10 mM Cpd” value of the first is lower: 95% for the first, 303% for the second.

Compared with `CC(=O)C1=C(C)NC(SCC(=O)c2ccc([N+](=O)[O-])cc2)=C(C#N)C1c1ccccc1Cl` (racemic) [Compound 14], `CC(=O)C1=C(C)NC(SCC(=O)c2ccc([N+](=O)[O-])cc2)=C(C#N)C1c1ccccc1` (racemic) [Compound 28] is higher in “% increase … at 10 mM Cpd” value: 24% for the first, 125% for the second.

Going from `CC(=O)C1=C(C)NC(SCC(=O)c2cccc(Br)c2)=C(C#N)C1c1ccccc1` (racemic) [Compound 16] to `CC(=O)C1=C(C)NC(SCC(=O)c2ccccc2)=C(C#N)C1c1ccccc1` (racemic) [Compound 19], the “% increase … at 10 mM Cpd” value falls from 143% to 71%.

Compared with `CC(=O)C1=C(C)NC(SCC(=O)c2ccc(Cl)cc2)=C(C#N)C1c1ccccc1` (racemic) [Compound 17], `CC(=O)C1=C(C)NC(SCC(=O)c2ccc(F)cc2)=C(C#N)C1c1ccccc1` (racemic) [Compound 18] is higher in “% increase … at 10 mM Cpd” value: 29% for the first, 37% for the second.

Compared with `CC(=O)C1=C(C)NC(SCC(=O)c2ccc(Cl)c(Cl)c2)=C(C#N)C1c1cccc(C)c1` (racemic) [Compound 20], `CC(=O)C1=C(C)NC(SCC(=O)c2ccc(Cl)c(Cl)c2)=C(C#N)C1c1ccccc1Cl` (racemic) [Compound 21] is higher in “% increase … at 10 mM Cpd” value: 79% for the first, 126% for the second.

First: CC(=O)C1=C(C)NC(SCC(=O)c2cc(Cl)ccc2Cl)=C(C#N)C1c1ccc(Br)cc1 (racemic) [Compound 23]
Second: CC(=O)C1=C(C)NC(SCC(=O)c2cc(Cl)ccc2Cl)=C(C#N)C1c1cccs1 (racemic) [Compound 33]
The “% increase … at 10 mM Cpd” value of the first is lower: 70% for the first, 181% for the second.

Going from `CCc1ccc(C2C(C#N)=C(SCC(=O)c3cccc([N+](=O)[O-])c3)NC(C)=C2C(C)=O)cc1` (racemic) [Compound 24] to `CC(=O)C1=C(C)NC(SCC(=O)c2cccc([N+](=O)[O-])c2)=C(C#N)C1c1cccs1` (racemic) [Compound 30], the “% increase … at 10 mM Cpd” value rises from 130% to 156%.

First: CC(=O)C1=C(C)NC(SCC(=O)c2ccc(Cl)c(Cl)c2)=C(C#N)C1c1cccs1 (racemic) [Compound 31]
Second: CC(=O)C1=C(C)NC(SCC(=O)c2ccc(Cl)cc2Cl)=C(C#N)C1c1cccs1 (racemic) [Compound 32]
The “% increase … at 10 mM Cpd” value of the first is higher: 151% for the first, 45% for the second.

Compared with `CC(=O)C1=C(C)NC(SCC(=O)c2ccc(Cl)cc2Cl)=C(C#N)C1c1ccco1` (racemic) [Compound 34], `CC(=O)C1=C(C)NC(SCC(=O)c2ccc([N+](=O)[O-])cc2)=C(C#N)C1c1ccco1` (racemic) [Compound 36] is higher in “% increase … at 10 mM Cpd” value: 97% for the first, 115% for the second.

same assay, conditions: at 3 µM; NRVM, 3 days

For `CC(=O)C1=C(C)NC(SCC(=O)c2ccc(Cl)c(Cl)c2)=C(C#N)C1c1ccco1` (racemic) [Compound 35], the “% increase of a-MyHC over baseline (at 3 µM)” value was 125 (at 3 mM) %.

same assay, conditions: tested according to Example 1; read-out: MPE50 for increasing α-MyHC protein levels

`CC(=O)C1=C(C)NC(SCC(=O)c2cccc([N+](=O)[O-])c2)=C(C#N)C1c1ccccc1Cl` (stereo not drawn) [R-enantiomer] was tested, and the EC50 was 790 nM.
With `CC(=O)C1=C(C)NC(SCC(=O)c2cccc([N+](=O)[O-])c2)=C(C#N)C1c1ccccc1Cl` (stereo not drawn) [S-enantiomer] the EC50 was > 32000 nM.
